Legend:
blackgrass [1] = assay: Test C preemergence; assay type: in vivo, Alopecurus myosuroides; details: for Plant response rating (scale of 0 to 100 where 0 is no effect and 100 is complete control): Blackgrass, preemergence; for Blackgrass plant response rating (0 to 100): Preemergence, visual rating after 13 to 15 d
Text: (§1) Seeds of plant species selected from blackgrass (Alopecurus myosuroides), ryegrass, Italian (Italian ryegrass, Lolium multiflorum), wheat (winter wheat, Triticum aestivum), galium (catchweed bedstraw, Galium aparine), corn (Zea mays), crabgrass, large (large crabgrass, Digitaria sanguinalis), foxtail, giant, (giant foxtail, Setaria faberii), johnsongrass (Sorghum halepense), lambsquarters (Chenopodium album), morningglory (Ipomoea coccinea), nutsedge, yellow (yellow nutsedge, Cyperus esculentus), pigweed (Amaranthus retroflexus), ragweed (common ragweed, Ambrosia elatior), soybean (Glycine max), barnyardgrass (Echinochloa crus-galli), oilseed rape (Brassica napus), waterhemp (common waterhemp, Amaranthus rudis), and velvetleaf (Abutilon theophrasti) were planted into a blend of loam soil and sand and treated preemergence with test chemicals formulated in a non-phytotoxic solvent mixture which included a surfactant. At the same time, plants selected from these crop and weed species and also chickweed (common chickweed, Stellaria media), oat, wild (wild oat, Avena fatua), and kochia (Kochia scoparia), were planted in pots containing Sunshine Redi-Earth® planting medium comprising spaghnum peat moss, vermiculite, starter nutrients and dolomitic limestone and treated with postemergence applications of test chemicals formulated in the same manner. Plants ranged in height from 2 to 18 cm (1- to 4-leaf stage) for postemergence treatments. […] A dash (-) response means no test result.

oat, wild = assay: Test D preemergence; assay type: in vivo, Avena fatua; details: scale 0 to 100
Text: (§2) Seeds of plant species selected from bluegrass (annual bluegrass, Poa annua), blackgrass (Alopecurus myosuroides), canarygrass (Phalaris minor), chickweed (common chickweed, Stellaria media), galium (catchweed bedstraw, Galium aparine), bromegrass, down (downy bromegrass, Bromus tectorum), Russian thistle (Salsola kali), field poppy (Papaver rhoeas), field violet (Viola arvensis), foxtail, green (green foxtail, Setaria viridis), deadnettle (henbit deadnettle, Lamium amplexicaule), ryegrass, Ital. (Italian ryegrass, Lolium multiflorum), kochia (Kochia scoparia), lambsquarters (Chenopodium album), oilseed rape (Brassica napus), pigweed (Amaranthus retroflexus), chamomile (scentless chamomile, Matricaria inodora), speedwell (bird's-eye speedwell, Veronica persica), barley, spring (spring barley, Hordeum vulgare), wheat, spring (spring wheat, Triticum aestivum), buckwheat, wild (wild buckwheat, Polygonum convolvulus), wild mustard (Sinapis arvensis), oat, wild (wild oat, Avena fatua), radish, wild (wild radish, Raphanus raphanistrum), […]), barley, winter (winter barley, Hordeum vulgare), and wheat, winter (winter wheat, Triticum aestivum) were planted into a silt loam soil and treated preemergence with test chemicals formulated in a non-phytotoxic solvent mixture which included a surfactant. At the same time, these species were planted in pots containing Sunshine Redi-Earth® planting medium comprising spaghnum peat moss, vermiculite, starter nutrients and dolomitic limestone and treated with postemergence applications of the test chemicals formulated in the same manner. Plants ranged in height from 2 to 18 cm (1- to 4-leaf stage). Treated plants and controls were maintained in a controlled growth environment for 14 to 21 d after which time all species were compared to controls and visually evaluated. […] A dash (-) response means no test result.

buckwheat, wild = assay: Test D postemergence; assay type: in vivo, Polygonum convolvulus; details: scale 0 to 100
Text: as §2

field violet = assay: Test D preemergence; assay type: in vivo, Viola arvensis; details: scale 0 to 100
Text: as §2

oilseed rape = assay: Test C preemergence; assay type: in vivo, Brassica napus; details: for Plant response rating (scale of 0 to 100 where 0 is no effect and 100 is complete control): Oilseed Rape, preemergence; for Oilseed Rape plant response rating (0 to 100): Preemergence, visual rating after 13 to 15 d
Text: as §1

deadnettle = assay: Test D postemergence; assay type: in vivo, Lamium amplexicaule; details: scale 0 to 100
Text: as §2

radish, wild = assay: Test D postemergence; assay type: in vivo, Raphanus raphanistrum; details: scale 0 to 100
Text: as §2

pigweed = assay: Test D postemergence; assay type: in vivo, Amaranthus retroflexus; details: scale 0 to 100
Text: as §2

blackgrass [2] = assay: Test D preemergence; assay type: in vivo, Alopecurus myosuroides; details: scale 0 to 100
Text: as §2

foxtail, green = assay: Test D postemergence; assay type: in vivo, Setaria viridis; details: scale 0 to 100
Text: as §2

canarygrass = assay: Test D preemergence; assay type: in vivo, Phalaris minor; details: scale 0 to 100
Text: as §2

kochia = assay: Test D preemergence; assay type: in vivo, Kochia scoparia; details: scale 0 to 100
Text: as §2

field poppy = assay: Test D preemergence; assay type: in vivo, Papaver rhoeas; details: scale 0 to 100
Text: as §2

soybean = assay: Test C preemergence; assay type: in vivo, Glycine max; details: for Soybean plant response rating (0 to 100): Preemergence, visual rating after 13 to 15 d; for Plant response rating (scale of 0 to 100 where 0 is no effect and 100 is complete control): Soybean, preemergence, 250 g ai/ha
Text: as §1

waterhemp = assay: Test C preemergence; assay type: in vivo, Amaranthus rudis; details: for Waterhemp plant response rating (0 to 100): Preemergence, visual rating after 13 to 15 d; for Plant response rating (scale of 0 to 100 where 0 is no effect and 100 is complete control): Waterhemp, preemergence, 250 g ai/ha
Text: as §1

SMILES: CCc1nc(-c2ccc(C(F)(F)F)cc2)nn1Cc1ccnc(C(F)(F)F)c1 [Compound 1, 4-[[5-ethyl-3-[4-(trifluoromethyl)phenyl]-1H-1,2,4-triazol-1-yl]methyl]-2-(trifluoromethyl)pyridine]
- Plant response rating (scale of 0 to 100 where 0 is no effect and 100 is complete control) (blackgrass [1]; 125 g ai/ha): 80
- Plant response rating (scale of 0 to 100 where 0 is no effect and 100 is complete control) (blackgrass [1]; 250 g ai/ha): 85
- Blackgrass plant response rating (0 to 100) (blackgrass [1]; 31 g ai/ha): 5
- Blackgrass plant response rating (0 to 100) (blackgrass [1]; 62 g ai/ha): 75
- Plant response rating: Oat, Wild (oat, wild; 62 g ai/ha): 0
- Plant response rating: Oat, Wild (oat, wild; 125 g ai/ha): 15
- Plant response rating: Oat, Wild (oat, wild; 250 g ai/ha): 45
- Plant response rating: Buckwheat, Wild (buckwheat, wild; 31 g ai/ha): 60
- Plant response rating: Buckwheat, Wild (buckwheat, wild; 62 g ai/ha): 80
- Plant response rating: Buckwheat, Wild (buckwheat, wild; 125 g ai/ha): 100
- Plant response rating: Buckwheat, Wild (buckwheat, wild; 250 g ai/ha): 100
- Plant response rating: Field Violet (field violet; 62 g ai/ha): 95
- Plant response rating: Field Violet (field violet; 125 g ai/ha): 100
- Plant response rating: Field Violet (field violet; 250 g ai/ha): 100
- Plant response rating (scale of 0 to 100 where 0 is no effect and 100 is complete control) (oilseed rape; 125 g ai/ha): 100
- Plant response rating (scale of 0 to 100 where 0 is no effect and 100 is complete control) (oilseed rape; 250 g ai/ha): 100
- Oilseed Rape plant response rating (0 to 100) (oilseed rape; 31 g ai/ha): 25
- Oilseed Rape plant response rating (0 to 100) (oilseed rape; 62 g ai/ha): 90
- Plant response rating: Deadnettle (deadnettle; 31 g ai/ha): 65
- Plant response rating: Deadnettle (deadnettle; 62 g ai/ha): 60
- Plant response rating: Deadnettle (deadnettle; 125 g ai/ha): 70
- Plant response rating: Deadnettle (deadnettle; 250 g ai/ha): 85
- Plant response rating: Radish, Wild (radish, wild; 31 g ai/ha): 75
- Plant response rating: Radish, Wild (radish, wild; 62 g ai/ha): 100
- Plant response rating: Radish, Wild (radish, wild; 125 g ai/ha): 95
- Plant response rating: Radish, Wild (radish, wild; 250 g ai/ha): 95
- Plant response rating: Pigweed (pigweed; 31 g ai/ha): 80
- Plant response rating: Pigweed (pigweed; 62 g ai/ha): 85
- Plant response rating: Pigweed (pigweed; 125 g ai/ha): 85
- Plant response rating: Pigweed (pigweed; 250 g ai/ha): 85
- Plant response rating: Blackgrass (blackgrass [2]; 31 g ai/ha): 15
- Plant response rating: Blackgrass (blackgrass [2]; 62 g ai/ha): 35
- Plant response rating: Blackgrass (blackgrass [2]; 125 g ai/ha): 35
- Plant response rating: Blackgrass (blackgrass [2]; 250 g ai/ha): 65
- Plant response rating: Foxtail, Green (foxtail, green; 31 g ai/ha): 25
- Plant response rating: Foxtail, Green (foxtail, green; 62 g ai/ha): 45
- Plant response rating: Foxtail, Green (foxtail, green; 125 g ai/ha): 65
- Plant response rating: Foxtail, Green (foxtail, green; 250 g ai/ha): 75
- Plant response rating: Canarygrass (canarygrass; 31 g ai/ha): 5
- Plant response rating: Canarygrass (canarygrass; 62 g ai/ha): 30
- Plant response rating: Canarygrass (canarygrass; 125 g ai/ha): 60
- Plant response rating: Canarygrass (canarygrass; 250 g ai/ha): 100
- Plant response rating: Kochia (kochia; 62 g ai/ha): 70
- Plant response rating: Kochia (kochia; 125 g ai/ha): 100
- Plant response rating: Kochia (kochia; 250 g ai/ha): 100
- Plant response rating: Field Poppy (field poppy; 62 g ai/ha): 100
- Plant response rating: Field Poppy (field poppy; 125 g ai/ha): 100
- Plant response rating: Field Poppy (field poppy; 250 g ai/ha): 100
- Soybean plant response rating (0 to 100) (soybean; 31 g ai/ha): 0
- Soybean plant response rating (0 to 100) (soybean; 62 g ai/ha): 5
- Plant response rating (scale of 0 to 100 where 0 is no effect and 100 is complete control) (soybean): 20

SMILES: CCCc1nc(-c2ccc(F)cc2)nn1Cc1ccnc(C(F)(F)F)c1 [Compound 6, 4-[[3-(4-fluorophenyl)-5-propyl-1H-1,2,4-triazol-1-yl]methyl]-2-(trifluoromethyl)pyridine]
- Plant response rating (scale of 0 to 100 where 0 is no effect and 100 is complete control) (blackgrass [1]; 125 g ai/ha): 95
- Plant response rating (scale of 0 to 100 where 0 is no effect and 100 is complete control) (blackgrass [1]; 250 g ai/ha): 95
- Blackgrass plant response rating (0 to 100) (blackgrass [1]; 31 g ai/ha): 70
- Blackgrass plant response rating (0 to 100) (blackgrass [1]; 62 g ai/ha): 90
- Plant response rating (scale of 0 to 100 where 0 is no effect and 100 is complete control) (oilseed rape; 125 g ai/ha): 100
- Plant response rating (scale of 0 to 100 where 0 is no effect and 100 is complete control) (oilseed rape; 250 g ai/ha): 100
- Oilseed Rape plant response rating (0 to 100) (oilseed rape; 31 g ai/ha): 70
- Oilseed Rape plant response rating (0 to 100) (oilseed rape; 62 g ai/ha): 100
- Soybean plant response rating (0 to 100) (soybean; 31 g ai/ha): 5
- Soybean plant response rating (0 to 100) (soybean; 62 g ai/ha): 5
- Plant response rating (scale of 0 to 100 where 0 is no effect and 100 is complete control) (soybean): 70

SMILES: COc1nc(-c2ccc(F)cc2)nn1Cc1ccnc(C(F)(F)F)c1 [Compound 9, 4-[[3-(4-fluorophenyl)-5-methoxy-1H-1,2,4-triazol-1-yl]methyl]-2-(trifluoromethyl)pyridine]
- Plant response rating (scale of 0 to 100 where 0 is no effect and 100 is complete control) (blackgrass [1]; 125 g ai/ha): 90
- Plant response rating (scale of 0 to 100 where 0 is no effect and 100 is complete control) (blackgrass [1]; 250 g ai/ha): 90
- Blackgrass plant response rating (0 to 100) (blackgrass [1]; 31 g ai/ha): 5
- Blackgrass plant response rating (0 to 100) (blackgrass [1]; 62 g ai/ha): 85
- Plant response rating (scale of 0 to 100 where 0 is no effect and 100 is complete control) (oilseed rape; 125 g ai/ha): 95
- Plant response rating (scale of 0 to 100 where 0 is no effect and 100 is complete control) (oilseed rape; 250 g ai/ha): 100
- Oilseed Rape plant response rating (0 to 100) (oilseed rape; 31 g ai/ha): 0
- Oilseed Rape plant response rating (0 to 100) (oilseed rape; 62 g ai/ha): 60
- Soybean plant response rating (0 to 100) (soybean; 31 g ai/ha): 0
- Soybean plant response rating (0 to 100) (soybean; 62 g ai/ha): 0
- Plant response rating (scale of 0 to 100 where 0 is no effect and 100 is complete control) (soybean): 40
- Waterhemp plant response rating (0 to 100) (waterhemp; 31 g ai/ha): 100
- Waterhemp plant response rating (0 to 100) (waterhemp; 62 g ai/ha): 100
- Plant response rating (scale of 0 to 100 where 0 is no effect and 100 is complete control) (waterhemp): 100

SMILES: COc1nc(-c2ccccc2)nn1Cc1ccnc(C(F)(F)F)c1 [Compound 32]
- Plant response rating (scale of 0 to 100 where 0 is no effect and 100 is complete control) (blackgrass [1]; 125 g ai/ha): 10
- Plant response rating (scale of 0 to 100 where 0 is no effect and 100 is complete control) (blackgrass [1]; 250 g ai/ha): 90
- Blackgrass plant response rating (0 to 100) (blackgrass [1]; 31 g ai/ha): 0
- Blackgrass plant response rating (0 to 100) (blackgrass [1]; 62 g ai/ha): 0
- Plant response rating (scale of 0 to 100 where 0 is no effect and 100 is complete control) (oilseed rape; 125 g ai/ha): 10
- Plant response rating (scale of 0 to 100 where 0 is no effect and 100 is complete control) (oilseed rape; 250 g ai/ha): 85
- Oilseed Rape plant response rating (0 to 100) (oilseed rape; 31 g ai/ha): 5
- Oilseed Rape plant response rating (0 to 100) (oilseed rape; 62 g ai/ha): 20
- Soybean plant response rating (0 to 100) (soybean; 31 g ai/ha): 0
- Soybean plant response rating (0 to 100) (soybean; 62 g ai/ha): 0
- Plant response rating (scale of 0 to 100 where 0 is no effect and 100 is complete control) (soybean): 5
- Waterhemp plant response rating (0 to 100) (waterhemp; 31 g ai/ha): 90
- Waterhemp plant response rating (0 to 100) (waterhemp; 62 g ai/ha): 100
- Plant response rating (scale of 0 to 100 where 0 is no effect and 100 is complete control) (waterhemp): 100
